In this experiment the target is T1, EZH2 (Homo sapiens, UniProt Q15910).
T1 construct: Protocol of the Cellular Assay of Target Protein Degradation (VCaP Cells, ELISA); endogenous in cells; host or cells: VCaP cells
T1 sequence (Q15910 whole entry): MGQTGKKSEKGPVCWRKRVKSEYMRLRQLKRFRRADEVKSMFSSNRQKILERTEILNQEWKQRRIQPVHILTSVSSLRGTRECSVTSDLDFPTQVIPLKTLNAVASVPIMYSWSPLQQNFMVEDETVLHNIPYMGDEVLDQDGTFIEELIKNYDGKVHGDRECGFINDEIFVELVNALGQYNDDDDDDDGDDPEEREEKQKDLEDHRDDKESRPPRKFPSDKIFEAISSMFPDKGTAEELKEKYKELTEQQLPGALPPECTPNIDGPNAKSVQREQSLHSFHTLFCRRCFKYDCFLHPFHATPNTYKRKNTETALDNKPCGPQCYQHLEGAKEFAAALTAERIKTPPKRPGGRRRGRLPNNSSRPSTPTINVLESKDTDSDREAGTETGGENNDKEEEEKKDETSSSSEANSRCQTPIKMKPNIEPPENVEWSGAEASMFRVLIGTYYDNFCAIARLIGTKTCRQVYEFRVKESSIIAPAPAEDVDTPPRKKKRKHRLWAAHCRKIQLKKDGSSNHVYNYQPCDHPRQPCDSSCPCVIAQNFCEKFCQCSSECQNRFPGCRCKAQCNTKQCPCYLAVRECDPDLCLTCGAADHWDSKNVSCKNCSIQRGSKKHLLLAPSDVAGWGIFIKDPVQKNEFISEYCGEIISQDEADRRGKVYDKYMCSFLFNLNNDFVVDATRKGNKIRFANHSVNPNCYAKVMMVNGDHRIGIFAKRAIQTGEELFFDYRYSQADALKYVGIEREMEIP
T1 sequence (O75530 whole entry partner): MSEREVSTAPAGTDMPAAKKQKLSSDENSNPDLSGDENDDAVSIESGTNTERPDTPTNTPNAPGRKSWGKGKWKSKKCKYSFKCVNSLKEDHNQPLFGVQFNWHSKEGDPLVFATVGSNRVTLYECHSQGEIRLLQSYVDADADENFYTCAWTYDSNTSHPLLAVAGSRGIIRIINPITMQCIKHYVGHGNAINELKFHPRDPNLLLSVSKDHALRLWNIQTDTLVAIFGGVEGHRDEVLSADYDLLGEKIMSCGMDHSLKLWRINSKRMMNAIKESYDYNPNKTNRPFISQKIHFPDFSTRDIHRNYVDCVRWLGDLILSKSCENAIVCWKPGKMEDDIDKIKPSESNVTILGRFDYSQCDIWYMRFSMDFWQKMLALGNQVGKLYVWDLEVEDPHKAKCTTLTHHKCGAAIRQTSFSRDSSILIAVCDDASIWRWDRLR
T1 sequence (Q15022 whole entry partner): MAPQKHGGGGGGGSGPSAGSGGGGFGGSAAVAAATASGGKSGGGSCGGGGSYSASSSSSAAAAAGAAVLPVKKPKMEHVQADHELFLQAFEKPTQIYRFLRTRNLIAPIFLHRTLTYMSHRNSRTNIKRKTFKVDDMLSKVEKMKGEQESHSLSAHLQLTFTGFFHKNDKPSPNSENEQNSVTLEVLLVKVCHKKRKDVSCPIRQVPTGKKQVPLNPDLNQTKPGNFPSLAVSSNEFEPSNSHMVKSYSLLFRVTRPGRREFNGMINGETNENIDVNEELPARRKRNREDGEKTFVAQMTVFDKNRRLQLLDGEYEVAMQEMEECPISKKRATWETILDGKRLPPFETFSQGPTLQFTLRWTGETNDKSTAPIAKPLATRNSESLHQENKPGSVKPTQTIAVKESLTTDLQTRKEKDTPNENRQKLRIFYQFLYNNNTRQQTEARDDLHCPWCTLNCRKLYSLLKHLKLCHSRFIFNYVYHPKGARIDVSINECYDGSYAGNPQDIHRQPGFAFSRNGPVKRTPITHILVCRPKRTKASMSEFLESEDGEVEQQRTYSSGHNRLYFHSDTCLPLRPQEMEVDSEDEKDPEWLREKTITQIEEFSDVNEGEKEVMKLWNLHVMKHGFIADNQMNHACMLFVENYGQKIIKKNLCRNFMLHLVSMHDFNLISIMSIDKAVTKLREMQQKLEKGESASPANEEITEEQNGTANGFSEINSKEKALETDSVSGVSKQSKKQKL
In words: Cellular assay of target protein degradation (VCaP cells, ELISA). It is filed as cell-based. Particulars: 4 hours, protein degradation range at indicated concentration (relative to DMSO control). The procedure, abridged:
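VCaP cells grown ≥3 days in RPMI with 5% CSS, then dosed with compounds in 0.1% DMSO for 4 h. Lysates analysed by sandwich ELISA for EZH2 with TMB readout at 450 nm, 562 nm used for background subtraction.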
(In general: In an ELISA, binding on a coated surface is turned into a signal by an enzyme label.)
As to `Cc1cc(C)c(CNC(=O)c2cc(-c3ccc(CN4CCN(CCOCCOCC(=O)N[C@H](C(=O)N5C[C@H](O)C[C@H]5C(=O)NCc5ccc(-c6scnc6C)cc5)C(C)(C)C)CC4)cc3)cc3c2ccn3C2CCCC2)c(=O)[nH]1` [Compound 2, 1-cyclopentyl-N-[(4,6-dimethyl-2-oxo-1,2-dihydropyridin-3-yl)methyl]-6-{4-[(4-{2-[2-({[(2S)-1-[(2S,4R)-4-hydroxy-2-({[4-(4-methyl-1,3-thiazol-5-yl)phenyl]methyl}carbamoyl)pyrrolidin-1-yl]-3,3-dimethyl-1-oxobutan-2-yl]carbamoyl}methoxy)ethoxy]ethyl)piperazin-1-yl)methyl]phenyl}-1H-indole-4-carboxamide], the “percent target protein degradation class” value is “B (B = degradation between 30% and 60%)”. The entry for `CCN(c1cc(-c2ccc(CCOCCOc3cc(C(C(=O)N4C[C@H](O)C[C@H]4C(=O)N[C@@H](C)c4ccc(-c5scnc5C)cc4)C(C)C)on3)cc2)cc(C(=O)NCc2c(C)cc(C)[nH]c2=O)c1C)C1CCOCC1` (stereo partly drawn) [Compound 110, (2S,4R)-1-(2-(3-(2-(2-(3′-(((4,6-dimethyl-2-oxo-1,2-dihydropyridin-3-yl)methyl)carbamoyl)-5′-(ethyl(tetrahydro-2H-pyran-4-yl)amino)-4′-methyl-[1,1′-biphenyl]-4-yl)ethoxy)ethoxy)isoxazol-5-yl)-3-methylbutanoyl)-4-hydroxy-N-((S)-1-(4-(4-methylthiazol-5-yl)phenyl)ethyl)pyrrolidine-2-carboxamide] is “A (A = degradation more than 60%)”; for `CCN(c1cc(-c2ccc(CCCOCCOCC(=O)N[C@H](C(=O)N3C[C@H](O)C[C@H]3C(=O)NCc3ccc(-c4scnc4C)cc3)C(C)(C)C)cc2)cc(C(=O)NCc2c(C)cc(C)[nH]c2=O)c1C)C1CCOCC1` [Compound 47, (2S,4R)-1-[(2S)-2-[2-(2-{3-[4-(3-{[(4,6-dimethyl-2-oxo-1,2-dihydropyridin-3-yl)methyl]carbamoyl}-5-[ethyl(oxan-4-yl)amino]-4-methylphenyl)phenyl]propoxy}ethoxy)acetamido]-3,3-dimethylbutanoyl]-4-hydroxy-N-{[4-(4-methyl-1,3-thiazol-5-yl)phenyl]methyl}pyrrolidine-2-carboxamide] it is “B (B = degradation between 30% and 60%)”. For `CCN(c1cc(-c2ccc(OCCCCOCCOc3cc(-c4scnc4C)ccc3CNC(=O)[C@@H]3C[C@@H](O)CN3C(=O)[C@H](C(C)C)N3Cc4ccccc4C3=O)cc2)cc(C(=O)NCc2c(C)cc(C)[nH]c2=O)c1C)C1CCOCC1` [Compound 53, (2S,4R)-N-{[2-(2-{4-[4-(3-{[(4,6-dimethyl-2-oxo-1,2-dihydropyridin-3-yl)methyl]carbamoyl}-5-[ethyl(oxan-4-yl)amino]-4-methylphenyl)phenoxy]butoxy}ethoxy)-4-(4-methyl-1,3-thiazol-5-yl)phenyl]methyl}-4-hydroxy-1-[(2S)-3-methyl-2-(1-oxo-2,3-dihydro-1H-isoindol-2-yl)butanoyl]pyrrolidine-2-carboxamide] the value was “B (B = degradation between 30% and 60%)”; for `CCN(c1cc(-c2ccc(OCCN3CCN(c4ccc5c(c4)C(=O)N(C4CCC(=O)NC4=O)C5=O)CC3)cc2)cc(C(=O)NCc2c(C)cc(C)[nH]c2=O)c1C)C1CCOCC1` (centres unmarked) [Compound 91, N-((4,6-dimethyl-2-oxo-1,2-dihydropyridin-3-yl)methyl)-4′-(2-(4-(2-(2,6-dioxopiperidin-3-yl)-1,3-dioxoisoindolin-5-yl)piperazin-1-yl)ethoxy)-5-(ethyl(tetrahydro-2H-pyran-4-yl)amino)-4-methyl-[1,1′-biphenyl]-3-carboxamide], “A (A = degradation more than 60%)”.

Source of the values: US11857519B2, “Compounds and methods for the targeted degradation of enhancer of zeste homolog 2 polypeptide” (Arvinas Operations, Inc., priority 2016, dated 2024).
